Earlier results in PMC3848067 (Acta Naturae, 2013).
Read-outs that look alike come from different tables or passages of the source.

Experiments:
[1] = design: method as in PMID 20380483; conditions: after oral administration of the named drug; cited from earlier work
[2] = dogs, value for the tested compound (2 or its metabolite AZT), cited from earlier work
[3] = rabbits, single oral dose of the named compound equivalent to 200 mg of AZT/kg; cited from earlier work
[4] = metabolite AZT after oral phosphonate 2, 20 mg/kg, rats; cited from earlier work
[5] = dogs, cited from earlier work; for tmax of AZT: oral phosphonate 2 capsules 600 mg daily
[6] = cited from earlier work
[7] = tested on: MT-4 cells; conditions: MT-4 cell culture; cited from earlier work
[8] = tested on: HIV infection; conditions: cited from earlier work
[9] = tested on: HIV; conditions: cited from earlier work
[10] = tested on: mice; conditions: intraperitoneal administration to mice; cited from earlier work
[11] = tested on: HIV-1; conditions: MT-4 cell culture; cited from earlier work
[12] = tested on: HIV-1; conditions: MT-4, CEM-SS and CEM-X174 cell lines; cited from earlier work
[13] = tested on: HIV-1; conditions: cell cultures C8 and JM; cited from earlier work
[14] = tested on: IIIB strain of HIV; conditions: IIIB strain of HIV in blood mononuclear cells; cited from earlier work
[15] = tested on: HXB2 strain of HIV; conditions: HXB2 strain of HIV in blood mononuclear cells; cited from earlier work
[16] = cited from earlier work; remark: listed apart in the source
[17] = canine whole blood at 37°С; cited from earlier work
[18] = single oral dose of capsules of 2, 10 mg/kg
[19] = single oral dose of capsules of 2, 20 mg/kg
[20] = single oral dose of capsules of 2, 40 mg/kg
[21] = compound 2 orally 600 mg for 7 days, 24 h intervals, day 7

For `Cc1cn([C@H]2C[C@H](N=[N+]=[N-])[C@@H](CO)O2)c(=O)[nH]c1=O` [AZT, 3’-azido-3’-deoxythymidine], the “Cmax of AZT” value [1] is given as about 1200 ng/mL, the “tmax of AZT” value [1] is given as 0.5 to 0.8 h and the Cmax [2, 18] is given as 360 ± 240 ng/mL. The Cmax/AUC [2, 18] was 0.119 ± 0.033 h⁻¹, the MRT [2, 18] was 8.90 ± 5.34 h and the t1/2 [2, 18] was 4.57 ± 1.46 h. The tmax [2, 18] was 4.7 ± 1.0 h, the Cmax [2, 19] was 690 ± 490 ng/mL and the Cmax/AUC [2, 19] was 0.107 ± 0.023 h⁻¹. The MRT [2, 19] was 12.0 ± 2.6 h, the t1/2 [2, 19] was 9.7 ± 4.3 h and the tmax [2, 19] was 5.0 ± 1.7 h. The Cmax [2, 20] was 980 ± 560 ng/mL, the Cmax/AUC [2, 20] was 0.100 ± 0.016 h⁻¹ and the MRT [2, 20] was 12.2 ± 1.4 h. For the same compound, the t1/2 [2, 20] was 7.0 ± 2.5 h, the tmax [2, 20] was 6.0 ± 1.3 h and the “AUC of AZT” value [3] was 88500 ± 25500 ng·h/mL. The “Cmax of AZT” value [3] was 39640 ± 4240 ng/mL, the “MRT of AZT” value [3] was 2.10 ± 0.30 h and the “t1/2 of AZT” value [3] was 2.13 ± 0.71 h. The “tmax of AZT” value [3] was 1.0 h, the “AUC 0-t” value [4] was 2270 ng·h/mL and the MRT [4] was 6.54 h. The tmax [4] was 4 h, the Сmax [4] was 0.4 mg/L and the “С0 of AZT in plasma” value [5, 21] was 0.17 ± 0.07 mg/L. The “Сmin of AZT in plasma” value [5, 21] was 0.17 ± 0.07 mg/L, the “tmax of AZT” value ([5]; day 1) was 2.7 h and the “tmax of AZT” value ([5]; day 7) was 4 h. For the same compound, the “half-life period (blood plasma)” value ([6]; AZT concentration after oral administration of phosphonate 2) was 3.9 h and the “detection of AZT in organs and tissues (liver, kidneys, spleen, lungs, skeletal muscles, mesentery)” value ([6]; metabolite of phosphonate 2) was “detected in all these organs and tissues”.

In the case of `Cc1cn(C2CC(N=[N+]=[N-])C(CO[PH](=O)[O-])O2)c(=O)[nH]c1=O.[Na+]` (centres unmarked) [Compound 1, sodium salt of AZT 5’-H-phosphonate], the “toxicity as compared to AZT” value [7] is listed as “lower”, the therapeutic efficacy ([8]; HIV-infected patients receiving HAART) is listed as “significant therapeutic efficacy” and the tolerability ([8]; adults and children) is listed as “well tolerated in both adults and children”. The “therapeutic effect (reduction of viral stress, immunorestoration, decrease in risk of concomitant diseases)” value ([8]; clinical practice) was “stable positive therapeutic effect”, the “adverse effects typically observed with AZT (vomiting, nausea, headache, diarrhea, myalgia, anemia, thrombocytopenia, neutrocytopenia)” value ([8]; during phosphazide therapy) was “No adverse effects” and the “safety in patients with opportunistic infections” value ([8]; patients with tuberculosis and liver pathologies of viral etiology) was “safe for patients with tuberculosis and liver pathologies of viral etiology”. For the same compound, the “penetration of AZT through the placenta” value ([9]; AZT from phosphazide) was “capable of efficiently penetrating the placenta”, the “effect on course of pregnancy, fetal maturity or viability” value ([9]; HIV-infected women) was “does not affect” and the “prevention of vertical transmission of HIV” value ([9]; during pregnancy, combined with Retrovir or Nevirapine during childbirth and postnatal period) was “efficiently prevents vertical transmission of HIV”. For the same compound, the “mean lethal dose (LD50)” value [10] was 2300 mg/kg, the anti-HIV activity [11] was “moderate” and the “selectivity index compared to AZT” value [11] was “higher than that of AZT”. The “activity compared to AZT” value [12] was “lower than that of AZT by almost an order of magnitude”, the “anti-HIV activity, times higher vs. that of AZT” value [13] was 10–20 times and the “selectivity index, times higher than that of AZT” value [14] was 1.5 times. The “selectivity index, times higher than that of AZT” value [15] was 15 times, the “half-life in 100% human blood serum” value [16] was “over 6 h” and the “Т1/2 in canine whole blood” value [17] was 3 h.
